For test [1] the following is noted: cited from earlier work.
Another test concerns dopamine β-hydroxylase. As to conditions: cited from earlier work.
Test [2] has as its system Streptomyces sp. isolates 275 and 124. Kind of test: Streptomycin susceptibility. Format: cell-based, Streptomyces albovinaceous. The source says: Streptomyces sp. isolates 124 and 275 were characterized by the methods developed by collaborators of the International Streptomyces Project for the identification of Streptomyces species (1, 7, 8, 10-14). Identification was made by using Nonomura's classification key (7) and Bergey's Manual of Determinative Bacteriology (1). The color of mature aerial mycelia was observed on OMA, potato dextrose agar, and Pridham and Gottlieb's basal agar with glucose (8). The colony color on the reverse side of the plate was observed on potato dextrose agar, OMA, and tyrosine-casein-nitrate agar. Color standards and color nomenclature were used to describe the colony color. The production of melanoid pigments was examined on peptone-iron agar, tyrosine agar, and tryptone-yeast extract broth. Carbon utilization by the organism was studied on Pridham and Gottlieb's basal agar with various carbon sources added (8).

Test [3] relates to Fusobacterium necrophorum. The note with it: cited from earlier work.
Test [4] relates to Bacillus subtilis and Saccharomyces cerevisiae. The test is described as follows: antimicrobial activity, paper disk agar diffusion bioassay. In kind it is cell-based.

Molecules are shown by their SMILES.

On to `[C-]#[N+]C(C(=O)OCC(O)C(O)C(O)C(O)COC(=O)C([N+]#[C-])=C(C)C)=C(C)C` (stereo not drawn) [A32390A], for which the antimicrobial result in test [1] is listed as “antimicrobial compound”. The “inhibitor of dopamine β-hydroxylase” value in the test with dopamine β-hydroxylase was “inhibitor”.

Consider `[H]/N=C(/N)N[C@H]1[C@H](O)[C@@H](O)[C@H](O[C@@H]2O[C@@H](C)[C@](O)(C=O)[C@H]2O[C@@H]2O[C@@H](CO)[C@H](O)[C@@H](O)[C@@H]2NC)[C@@H](N/C(N)=N\[H])[C@@H]1O` [Streptomycin], for which the Streptomycin susceptibility entry in test [2] (10 μg/ml) is recorded as “not”; in test [2] (50 μg/ml), “Inhibited”.

On to `CC[C@H]1OC(=O)[C@H](C)[C@@H](O[C@H]2C[C@@](C)(OC)[C@@H](O)[C@H](C)O2)[C@H](C)[C@@H](O[C@@H]2O[C@H](C)C[C@H](N(C)C)[C@H]2O)[C@](C)(O)C[C@@H](C)C(=O)[C@H](C)[C@@H](O)[C@]1(C)O` [erythromycin], for which the “resistance of Fusobacterium necrophorum” value in test [3] is listed as “high levels of resistance”.

On to `C[C@@H]1C[C@H](C)C[C@H](C)[C@@H](O)CC(=O)O[C@H]([C@@H]2CCC[C@H]2C(=O)O)C/C=C/C=C(/CN)[C@H](O)[C@@H](C)C1` [primary amine], for which, in test [4], the antimicrobial activity entry is reported as “no antimicrobial activity”.

The record behind these values is US4759928A, “Antibiotic: Treponemycin” (Washington State University Research Foundation, priority 1986, dated 1988).
